Results as given in patent publication US12180187B2, “1-phenyl-5-azinylpyrazolyl-3-oxyalkyl acids and their use for controlling unwanted plant growth” (BAYER AKTIENGESELLSCHAFT, priority 2019, dated 2024).

Columns and labels:
LOLRI = experiment: Pre-emergence action against LOLRI, 1280 g/ha; assay type: in vivo, Lolium rigidum; details: visual scoring after about 3 weeks vs untreated controls, 100% = plants have died, 0% = like control plants
Outline: (§1)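 Visual percent-effect ratings (0% = like control, 100% = plants dead) were taken about 3 weeks after pre-emergence soil-surface application of WP/EC aqueous formulations with 0.5% additive, 600 L water/ha. Seeds were sown in sandy loam and grown in the greenhouse.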

DIGSA [1] = experiment: Pre-emergence action against DIGSA, 1280 g/ha; assay type: in vivo, Digitaria sanguinalis; details: visual scoring after about 3 weeks vs untreated controls, 100% = plants have died, 0% = like control plants
Outline: as §1

MATIN [2] = experiment: Pre-emergence action against MATIN, 1280 g/ha; assay type: in vivo, Tripleurospermum inodorum (Matricaria inodora); details: scored visually after about 3 weeks vs untreated controls (100% = plants have died)
Outline: as §1

ABUTH = experiment: Post-emergence action against ABUTH, 1.28 kg/ha; assay type: in vivo, Abutilon theophrasti; details: dosage 1280 g/ha, visual rating about 3 weeks after treatment vs untreated controls (100% = plants died)
Outline: (§2)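 Greenhouse pot test, sandy loam; weeds sprayed post-emergence at one-leaf stage (2–3 weeks after sowing) with WP or EC formulation plus 0.5% additive, 600 l/ha water. Visual rating after about 3 weeks versus untreated controls, 100% = plants dead, 0% = like control.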

MATIN [3] = experiment: Post-emergence action against MATIN, 1.28 kg/ha; assay type: in vivo, Tripleurospermum inodorum (Matricaria inodora); details: dosage 1280 g/ha, visual rating about 3 weeks after treatment vs untreated controls (100% = plants died)
Outline: as §2

VERPE [4] = experiment: Post-emergence action against VERPE, 1.28 kg/ha; assay type: in vivo, Veronica persica; details: dosage 1280 g/ha, visual rating about 3 weeks after treatment vs untreated controls (100% = plants died)
Outline: as §2

ECHCG [5] = experiment: Post-emergence action against ECHCG, 1.28 kg/ha; assay type: in vivo, Echinochloa crus-galli; details: dosage 1280 g/ha, visual rating about 3 weeks after treatment vs untreated controls
Outline: as §2

STEME [6] = experiment: Pre-emergence action against STEME, 1280 g/ha; assay type: in vivo, Stellaria media; details: scored visually after about 3 weeks vs untreated controls (100% = plants have died)
Outline: as §1

KCHSC [7] = experiment: Post-emergence action against KCHSC, 1.28 kg/ha; assay type: in vivo, Bassia scoparia; details: dosage 1280 g/ha, visual rating about 3 weeks after treatment vs untreated controls (100% = plants died)
Method: • a) Seeds of mono- and dicotyledonous weed plants are placed in plastic pots in sandy loam soil (twin sowing with one species each of mono- or dicotyledonous weed plants per pot), covered with soil and cultivated in a greenhouse under controlled growth conditions. 2 to 3 weeks after sowing, the test plants are treated at the one-leaf stage. The compounds of the invention, formulated in the form of wettable powders (WP) or as emulsion concentrates (EC), are applied to the green parts of the plants as aqueous suspension or emulsion with addition of 0.5% additive at a water application rate equivalent to 600 litres per hectare. After the test plants have been kept in the greenhouse under optimum growth conditions for about 3 weeks, the activity of the preparations is rated visually in comparison to untreated controls. For example, 100% activity=the plants have died, 0% activity=like control plants. As shown by the results, compounds of the general formula (I) of the invention, in post-emergence treatment, have very good herbicidal efficacy (90% to 100% herbicidal action) against harmful plants such as Abutilon theophrasti, Digitaria sanguinalis, Echinochloa crus-galli, Matricaria inodora, Poa annua, at an application rate of 1.28 kg of active substance per hectare.

SETVI [8] = experiment: Pre-emergence action against SETVI, 1280 g/ha; assay type: in vivo, Setaria viridis; details: visual scoring after about 3 weeks vs untreated controls, 100% = plants have died, 0% = like control plants
Outline: as §1

VERPE [9] = experiment: Pre-emergence action against VERPE, 1280 g/ha; assay type: in vivo, Veronica persica; details: scored visually after about 3 weeks vs untreated controls (100% = plants have died)
Outline: as §1

ALOMY [10] = experiment: Pre-emergence action against ALOMY, 1280 g/ha; assay type: in vivo, Alopecurus myosuroides; details: visual scoring after about 3 weeks vs untreated controls, 100% = plants have died, 0% = like control plants
Outline: as §1

ALOMY [11] = experiment: Post-emergence action against ALOMY, 1.28 kg/ha; assay type: in vivo, Alopecurus myosuroides; details: dosage 1280 g/ha, visual rating about 3 weeks after treatment vs untreated controls
Outline: as §2

STEME [12] = experiment: Post-emergence action against STEME, 1.28 kg/ha; assay type: in vivo, Stellaria media; details: dosage 1280 g/ha, visual rating about 3 weeks after treatment vs untreated controls (100% = plants died)
Outline: as §2

AMARE [13] = experiment: Pre-emergence action against AMARE, 1280 g/ha; assay type: in vivo, Amaranthus retroflexus; details: scored visually after about 3 weeks vs untreated controls (100% = plants have died)
Outline: as §1

POAAN [14] = experiment: Post-emergence action against POAAN, 1.28 kg/ha; assay type: in vivo, Poa annua; details: dosage 1280 g/ha, visual rating about 3 weeks after treatment vs untreated controls
Outline: as §2

AMARE [15] = experiment: Post-emergence action against AMARE, 1.28 kg/ha; assay type: in vivo, Amaranthus retroflexus; details: dosage 1280 g/ha, visual rating about 3 weeks after treatment vs untreated controls (100% = plants died)
Outline: as §2

KCHSC [16] = experiment: Pre-emergence action against KCHSC, 1280 g/ha; assay type: in vivo, Bassia scoparia; details: scored visually after about 3 weeks vs untreated controls (100% = plants have died)
Excerpt: 1. Pre-Emergence Herbicidal Effect and Crop Plant Compatibility a) Seeds of mono- and dicotyledonous weed plants are placed in plastic pots in sandy loam soil (doubly sown with one species each of mono- or dicotyledonous weed plants per pot) and covered with soil. The compounds of the invention, formulated in the form of wettable powders (WP) or as emulsion concentrates (EC), are then applied onto the surface of the covering soil as aqueous suspension or emulsion with addition of 0.5% additive at a water application rate equivalent to 600 litres per hectare. After the treatment, the pots are placed in a greenhouse and kept under good growth conditions for the trial plants. After about 3 weeks, the effect of the preparations is scored visually in comparison with untreated controls as percentages. For example, 100% activity=the plants have died, 0% activity=like control plants. 1. Pre-Emergence Effectiveness Tables 1 to 12 below show the effects of selected compounds of the general formula (I) according to Tables 1 and 2 on various harmful plants and at an application rate corresponding to 1280 g/ha, which were obtained by the experimental procedure mentioned above.

POAAN [17] = experiment: Pre-emergence action against POAAN, 1280 g/ha; assay type: in vivo, Poa annua; details: visual scoring after about 3 weeks vs untreated controls, 100% = plants have died, 0% = like control plants
Outline: as §1

ECHCG [18] = experiment: Pre-emergence action against ECHCG, 1280 g/ha; assay type: in vivo, Echinochloa crus-galli; details: visual scoring after about 3 weeks vs untreated controls, 100% = plants have died, 0% = like control plants
Outline: as §1

DIGSA [19] = experiment: Post-emergence action against DIGSA, 1.28 kg/ha; assay type: in vivo, Digitaria sanguinalis; details: dosage 1280 g/ha, visual rating about 3 weeks after treatment vs untreated controls
Outline: as §2

SETVI [20] = experiment: Post-emergence action against SETVI, 1.28 kg/ha; assay type: in vivo, Setaria viridis; details: dosage 1280 g/ha, visual rating about 3 weeks after treatment vs untreated controls
Outline: as §2

| SMILES | Pre-emergence action against LOLRI (LOLRI) | Pre-emergence action against DIGSA (DIGSA [1]) | Pre-emergence action against MATIN (MATIN [2]) | Post-emergence action against MATIN (MATIN [3]) | Post-emergence action against VERPE (VERPE [4]) | Post-emergence action against ECHCG (ECHCG [5]) | Pre-emergence action against STEME (STEME [6]) | Post-emergence action against KCHSC (KCHSC [7]) | Pre-emergence action against SETVI (SETVI [8]) | Pre-emergence action against VERPE (VERPE [9]) | Pre-emergence action against ALOMY (ALOMY [10]) | Post-emergence action against ALOMY (ALOMY [11]) | Post-emergence action against STEME (STEME [12]) | Pre-emergence action against AMARE (AMARE [13]) | Post-emergence action against POAAN (POAAN [14]) | Post-emergence action against AMARE (AMARE [15]) | Pre-emergence action against KCHSC (KCHSC [16]) | Pre-emergence action against POAAN (POAAN [17]) | Pre-emergence action against ECHCG (ECHCG [18]) | Post-emergence action against DIGSA (DIGSA [19]) | also measured |
| --- | --- | --- | --- | --- | --- | --- | --- | --- | --- | --- | --- | --- | --- | --- | --- | --- | --- | --- | --- | --- | --- |
| COC(=O)CNC(=O)COc1nn(-c2ccc(F)cc2)c(-c2ccc(F)nc2)c1C(F)(F)F [Example X-020] | 100% | 100% | 90% | 90% | 100% | 100% | 90% | 100% | 100% | 90% | 100% | 100% | 100% | 90% | 100% | 100% | 90% | 100% | 100% |  | Post-emergence action against ABUTH (ABUTH): 90% |
| CON(C)C(=O)COc1nn(-c2ccc(F)cc2F)c(-c2ccc(F)nc2)c1Br [Example X-025] | 100% | 100% | 100% | 90% | 100% | 100% | 100% | 90% | 100% | 100% | 100% | 100% |  | 100% | 100% |  | 100% | 100% | 100% | 100% |  |
| O=C(COc1nn(-c2ccc(F)cc2F)c(-c2ccc(F)nc2)c1Br)NO [Example X-028] | 100% | 100% | 100% | 100% | 100% | 100% | 100% | 90% | 100% | 90% | 90% | 100% | 90% | 100% | 100% |  | 100% | 100% | 100% |  | Post-emergence action against SETVI (SETVI [20]): 90% |
| O=C(O)COc1nn(-c2ccccc2F)c(-c2ccnnc2)c1Br [IV-002] |  | 90% | 100% | 90% | 90% |  | 100% | 90% | 100% |  |  |  | 100% | 100% | 100% | 100% | 90% | 100% | 100% | 100% | Post-emergence action against ABUTH (ABUTH): 90% |
| CCOC(=O)COc1nn(-c2ccccc2F)c(-c2cncnc2)c1[N+](=O)[O-] [VI-005] | 100% | 100% | 100% | 90% | 90% | 90% | 100% | 90% | 100% | 100% | 90% | 90% | 100% | 100% | 100% | 90% | 90% | 100% | 90% |  | Post-emergence action against ABUTH (ABUTH): 90% |
| COC(=O)[C@H](C)Oc1nn(-c2ccccc2F)c(-c2cncnc2)c1Br [VI-008] | 100% | 100% | 90% | 90% |  |  | 100% | 90% | 100% |  |  |  | 90% | 100% | 100% |  | 90% | 100% |  | 100% | Post-emergence action against ABUTH (ABUTH): 90% |
| CC(Oc1nn(-c2ccccc2F)c(-c2ccc(F)nc2)c1Br)C(=O)O (stereo not drawn) [VII-096] | 100% | 100% | 100% | 90% | 90% | 90% | 100% | 90% | 100% | 100% | 100% | 100% | 100% | 100% | 100% | 100% | 100% | 100% | 100% | 100% | Post-emergence action against SETVI (SETVI [20]): 90% |
| O=C(O)COc1nn(-c2ccc(F)cc2)c(-c2ccc(F)nc2)c1C(F)(F)F [VII-125] | 100% | 100% | 90% | 90% | 100% | 90% | 90% | 90% | 100% | 90% |  | 100% | 90% | 90% | 100% | 90% | 100% | 100% | 100% | 100% |  |
